Laboratory results reported in patent US8815859B2, “Substituted pyrazin-2-ones and substituted 5,6,7,8-tetrahydroquinoxalin-2-ones and methods of use thereof” (Merck Patent GmbH, priority 2008, dated 2014).

Assays:
INS-1 cells = assay: Insulin secretion assay in INS-1 cells (glucose at 4.2 mM); type: cell-based, rat; settings: glucose 4.2 mM, 1 h incubation, control = glucose 4.2 mM; for Insulin secretion, % of ctrl at 10 μM of cpd: 10 μM of compound; for Insulin secretion, % of ctrl at 50 μM of cpd: 50 μM of compound
Description: INS-1 cells were cultured in complete medium, RPMI1640 containing 1 mM sodium pyruvate, 50 μM 2-mercaptoethanol, 2 mM glutamine, 10 mM HEPES, 100 IU/mL penicillin, and 100 μg/mL streptomycin (CM), supplemented with 10 mM glucose, and 10% (vol/vol) heat-inactivated fetal calf serum (FCS), as described by Asfari et al. (Endocrinology 130: 167-178, 1992).
INS-1 cells were plated and cultured in 48-well plates. After 2 days of culture, the medium was removed and cells were cultured for 24 h with a medium change to 5 mM glucose, 1% FCS. The cells were then washed with Krebs-Ringer Bicarbonate HEPES buffer (KRBH; 135 mM NaCl; 3.6 mM KCl; 5 mM NaHCO3; 0.5 mM NaH2PO4; 0.5 mM MgCl2; 1.5 mM CaCl2 and 10 mM HEPES; pH 7.4) 0,1% BSA containing 2.8 mM glucose and preincubated for 30 min at 37° C. in the same buffer. The cells were then washed twice and incubated for 1 h in KRBH 0.1% BSA containing 4.2 mM glucose and different concentrations of the tested molecule. Insulin concentration in the collected supernatants was measured with ELISA using rat insulin antibody (Insulin Rat Elit PLUS, cat. ref 10-1145-01).
Insulin secretion results are expressed in % of control (glucose 4.2 mM).
Insulin Secretion in INS-1 Cells (Glucose at 4.2 mM)

SMILES	melting point [°C]	Insulin secretion, % of ctrl at 10 μM of cpd (INS-1 cells)	Insulin secretion, % of ctrl at 50 μM of cpd (INS-1 cells)
CCn1ccnc(-c2ccc(S(C)(=O)=O)cc2)c1=O [Example 5-2, 1-ethyl-3-[4-(methylsulfonyl)phenyl]pyrazin-2(114)-one]	108 to 110		
CCn1ccnc(-c2ccc3c(c2)OCO3)c1=O [Example 5-5, 3-(1,3-benzodioxol-5-yl)-1-ethylpyrazin-2(1H)-one]		158 % of ctrl	204 % of ctrl
CCn1ccnc(-c2ccc(C(=O)O)cc2)c1=O [Example 5-15, 4-(4-ethyl-3-oxo-3,4-dihydropyrazin-2-yl)benzoic acid]	170		
CCn1ccnc(-c2ccc3cc[nH]c3c2)c1=O [Example 5-16, 1-ethyl-3-(1H-indol-6-yl)pyrazin-2(1H)-one]	170		
CCn1c2c(nc(-c3ccc(Cl)cc3)c1=O)CCCC2 [Example 9, 3-(4-chlorophenyl)-1-ethyl-5,6,7,8-tetrahydroquinoxalin-2(1H)-one]	110 to 113	343 % of ctrl	371 % of ctrl
CCCn1ccnc(-c2ccccc2)c1=O [Example 9-3, 3-phenyl-1-propylpyrazin-2(1H)-one]		145 % of ctrl	182 % of ctrl
CC(C)Cn1ccnc(-c2ccc(Cl)cc2)c1=O [Example 9-7, 3-(4-chlorophenyl)-1-isobutylpyrazin-2(1H)-one]		140 % of ctrl	338 % of ctrl
O=c1c(-c2ccc(Cl)cc2)nccn1CC1CC1 [Example 9-8, 3-(4-chlorophenyl)-1-(cyclopropylmethyl)pyrazin-2(1H)-one]		172 % of ctrl	333 % of ctrl
